Reference: PubChem BioAssay AID1745844 (Carcinogenic Potency Database (CPDB), 2022)
Active and inactive are the calls of the source. No rule for the calls is given here.

Tested on: rodent lifetime carcinogenesis bioassay, tumor incidence TD50
Test: chronic cancer bioassays in animals – CPDB, compiled studies (AID 1745844)

## CCBr
mouse, strain B6C3F1, females, inhaled, site: any site (literature study), lesion: several types, types named in the paper, dosed 103 weeks, study length 105 weeks
  TD50: 571 mg/kg/day
mouse, strain B6C3F1, females, inhaled, site: lung, lesion: alveolar/bronchiolar adenoma + alveolar/bronchiolar carcinoma, dosed 103 weeks, study length 105 weeks
  TD50: 5810 mg/kg/day
mouse, strain B6C3F1, females, inhaled, site: uterus, lesion: adenocarcinoma, NOS + adenoma, NOS + squamous-cell carcinoma, dosed 103 weeks, study length 105 weeks
  TD50: 535 mg/kg/day
mouse, strain B6C3F1, females, inhaled, site: uterus, lesion: adenocarcinoma, NOS + adenoma, NOS, dosed 103 weeks, study length 105 weeks
  TD50: 596 mg/kg/day
mouse, strain B6C3F1, females, inhaled, site: uterus, lesion: adenocarcinoma, NOS + squamous-cell carcinoma, dosed 103 weeks, study length 105 weeks
  TD50: 681 mg/kg/day
mouse, strain B6C3F1, females, inhaled, site: uterus, lesion: adenocarcinoma, NOS, dosed 103 weeks, study length 105 weeks
  TD50: 822 mg/kg/day
mouse, strain B6C3F1, females, inhaled, site: uterus, lesion: adenoma, NOS, dosed 103 weeks, study length 105 weeks
  TD50: 2610 mg/kg/day
mouse, strain B6C3F1, females, inhaled, site: uterus, lesion: squamous-cell carcinoma, dosed 103 weeks, study length 105 weeks
  TD50: 4440 mg/kg/day
mouse, strain B6C3F1, males, inhaled, site: any site (literature study), lesion: several types, types named in the paper, dosed 104 weeks, study length 105 weeks
  TD50: 1630 mg/kg/day
mouse, strain B6C3F1, males, inhaled, site: liver, lesion: hepatocellular adenoma + hepatocellular carcinoma + neoplastic nodule, dosed 104 weeks, study length 105 weeks
  TD50: 3670 mg/kg/day
mouse, strain B6C3F1, males, inhaled, site: lung, lesion: alveolar/bronchiolar adenoma + alveolar/bronchiolar carcinoma, dosed 104 weeks, study length 105 weeks
  TD50: 1100 mg/kg/day
mouse, strain B6C3F1, males, inhaled, site: lung, lesion: alveolar/bronchiolar carcinoma, dosed 104 weeks, study length 105 weeks
  TD50: 2390 mg/kg/day
rat, strain Fischer 344, females, inhaled, site: brain, lesion: glioma, NOS, dosed 104 weeks, study length 106 weeks
  TD50: 1020 mg/kg/day
rat, strain Fischer 344, females, inhaled, site: liver, lesion: hepatocellular adenoma + hepatocellular carcinoma + neoplastic nodule, dosed 104 weeks, study length 106 weeks
  TD50: 670 mg/kg/day
rat, strain Fischer 344, females, inhaled, site: lung, lesion: alveolar/bronchiolar adenoma, dosed 104 weeks, study length 106 weeks
  TD50: 1280 mg/kg/day
rat, strain Fischer 344, males, inhaled, site: adrenal medulla + brain + lung, lesion: pheochromocytoma + pheochromocytoma, malignant + astrocytoma + granulosa-cell tumor, NOS + glioma, NOS + oligodendroglioma + alveola, dosed 104 weeks, study length 106 weeks
  TD50: 151 mg/kg/day
rat, strain Fischer 344, males, inhaled, site: adrenal medulla, lesion: pheochromocytoma + pheochromocytoma, malignant, dosed 104 weeks, study length 106 weeks
  TD50: 149 mg/kg/day
rat, strain Fischer 344, males, inhaled, site: brain, lesion: astrocytoma + glioma, NOS + oligodendroglioma, dosed 104 weeks, study length 106 weeks
  carcinogen call: p
rat, strain Fischer 344, males, inhaled, site: brain, lesion: granulosa-cell tumor, NOS, dosed 104 weeks, study length 106 weeks
  TD50: 80700 mg/kg/day
rat, strain Fischer 344, males, inhaled, site: liver, lesion: hepatocellular adenoma + hepatocellular carcinoma + neoplastic nodule, dosed 104 weeks, study length 106 weeks
  TD50: 2280 mg/kg/day
rat, strain Fischer 344, males, inhaled, site: liver, lesion: neoplastic nodule, dosed 104 weeks, study length 106 weeks
  TD50: 1140 mg/kg/day
rat, strain Fischer 344, males, inhaled, site: lung, lesion: alveolar/bronchiolar adenoma + alveolar/bronchiolar carcinoma, dosed 104 weeks, study length 106 weeks
  TD50: 582 mg/kg/day

## CC(=O)Nc1nnc(-c2ccc([N+](=O)[O-])o2)s1
mouse, strain Swiss, females, in feed, site: any site (literature study), lesion: several types, types named in the paper, dosed 46 weeks, study length 55 weeks
  TD50: 6.9 mg/kg/day
mouse, strain Swiss, females, in feed, site: forestomach, lesion: several types, types named in the paper, dosed 46 weeks, study length 55 weeks
  TD50: 6.74 mg/kg/day
mouse, strain Swiss, females, in feed, site: forestomach, lesion: squamous-cell carcinoma, dosed 46 weeks, study length 55 weeks
  TD50: 104 mg/kg/day
mouse, strain Swiss, females, in feed, site: forestomach, lesion: squamous-cell papilloma, dosed 46 weeks, study length 55 weeks
  TD50: 14.1 mg/kg/day
rat, strain Sprague-Dawley, females, in feed, site: all sites, lesion: lymphoblastic lymphoma, dosed 40 weeks, study length 59 weeks
  TD50: 111 mg/kg/day
rat, strain Sprague-Dawley, females, in feed, site: forestomach, lesion: several types, types named in the paper, dosed 40 weeks, study length 59 weeks
  TD50: 8.84 mg/kg/day
rat, strain Sprague-Dawley, females, in feed, site: forestomach, lesion: squamous-cell papilloma, dosed 40 weeks, study length 59 weeks
  TD50: 11.6 mg/kg/day
rat, strain Sprague-Dawley, females, in feed, site: intestine, lesion: hemangioendothelial sarcoma, dosed 40 weeks, study length 59 weeks
  TD50: 18.6 mg/kg/day
rat, strain Sprague-Dawley, females, in feed, site: kidney/pelvis, lesion: transitional-cell carcinoma, dosed 40 weeks, study length 59 weeks
  TD50: 16.9 mg/kg/day
rat, strain Sprague-Dawley, females, in feed, site: liver, lesion: hemangioendothelial sarcoma, dosed 40 weeks, study length 59 weeks
  TD50: 22.9 mg/kg/day
rat, strain Sprague-Dawley, females, in feed, site: lung, lesion: alveolar-cell carcinoma, dosed 40 weeks, study length 59 weeks
  TD50: 15.3 mg/kg/day
rat, strain Sprague-Dawley, females, in feed, site: lung, lesion: hemangioendothelial sarcoma, dosed 40 weeks, study length 59 weeks
  TD50: 52.3 mg/kg/day
rat, strain Sprague-Dawley, females, in feed, site: mammary gland, lesion: adenocarcinoma, dosed 40 weeks, study length 59 weeks
  TD50: 37.7 mg/kg/day
rat, strain Sprague-Dawley, females, in feed, site: mammary gland, lesion: several types, types named in the paper, dosed 40 weeks, study length 59 weeks
  TD50: 43.3 mg/kg/day
rat, strain Sprague-Dawley, females, in feed, site: pancreas, lesion: hemangioendothelial sarcoma, dosed 40 weeks, study length 59 weeks
  TD50: 81.6 mg/kg/day
rat, strain Sprague-Dawley, females, in feed, site: several sites, sites named in the paper, lesion: hemangioendothelial sarcoma, dosed 40 weeks, study length 59 weeks
  TD50: 10.6 mg/kg/day
rat, strain Sprague-Dawley, females, in feed, site: small intestine, lesion: adenocarcinoma, dosed 40 weeks, study length 59 weeks
  TD50: 111 mg/kg/day
rat, strain Sprague-Dawley, females, in feed, site: small intestine, lesion: leiomyosarcoma, dosed 40 weeks, study length 59 weeks
  TD50: 111 mg/kg/day

## CCOc1ccc(NC(=O)CC(C)O)cc1 (stereo not given)
mouse, strain B6C3F1, females, in feed, site: liver, lesion: hepatocellular adenoma, dosed 72 weeks, study length 84 weeks
  TD50: 4000 mg/kg/day
mouse, strain B6C3F1, females, in feed, site: lung, lesion: alveolar-cell tumor, dosed 72 weeks, study length 84 weeks
  TD50: 11300 mg/kg/day
mouse, strain B6C3F1, males, in feed, site: all sites, lesion: lymphoma and leukemia, combined, dosed 70 weeks, study length 84 weeks
  TD50: 2740 mg/kg/day
mouse, strain B6C3F1, males, in feed, site: kidney, lesion: renal-cell adenoma, dosed 70 weeks, study length 84 weeks
  TD50: 5580 mg/kg/day
mouse, strain B6C3F1, males, in feed, site: kidney, lesion: renal-cell carcinoma, dosed 70 weeks, study length 84 weeks
  TD50: 5530 mg/kg/day
mouse, strain B6C3F1, males, in feed, site: liver, lesion: hemangioma, dosed 70 weeks, study length 84 weeks
  TD50: 406000 mg/kg/day
mouse, strain B6C3F1, males, in feed, site: liver, lesion: hepatocellular adenoma, dosed 70 weeks, study length 84 weeks
  TD50: 17500 mg/kg/day
mouse, strain B6C3F1, males, in feed, site: lung, lesion: alveolar-cell tumor, dosed 70 weeks, study length 84 weeks
  TD50: 5280 mg/kg/day
mouse, strain B6C3F1, males, in feed, site: urinary bladder, lesion: papilloma, dosed 70 weeks, study length 84 weeks
  TD50: 46400 mg/kg/day

## F
mouse, strain B6C3F1, females, in drinking water, site: any site (literature study), lesion: several types, types named in the paper, dosed 103 weeks, study length 104 weeks
  carcinogen call: negative (inactive)
mouse, strain B6C3F1, males, in drinking water, site: any site (literature study), lesion: several types, types named in the paper, dosed 103 weeks, study length 104 weeks
  carcinogen call: negative (inactive)
mouse, strain Charles River CD1, both sexes, in drinking water, site: any site (literature study), lesion: malignant tumor, dosed 129 weeks, study length 129 weeks
  carcinogen call: negative (inactive)
mouse, strain Charles River CD1, both sexes, in drinking water, site: any site (literature study), lesion: one or several types, types not named, dosed 129 weeks, study length 129 weeks
  carcinogen call: negative (inactive)
mouse, strain Charles River CD1, both sexes, in drinking water, site: liver, lesion: one or several types, types not named, dosed 129 weeks, study length 129 weeks
  carcinogen call: negative (inactive)
mouse, strain Charles River CD1, both sexes, in drinking water, site: lung, lesion: one or several types, types not named, dosed 129 weeks, study length 129 weeks
  carcinogen call: negative (inactive)
mouse, strain DBA, females, in feed, site: mammary gland, lesion: carcinoma, dosed 90 weeks, study length 90 weeks
  carcinogen call: negative (inactive)
rat, strain Fischer 344, females, in drinking water, site: any site (literature study), lesion: several types, types named in the paper, dosed 103 weeks, study length 104 weeks
  TD50: 73.9 mg/kg/day (inactive)
rat, strain Fischer 344, males, in drinking water, site: any site (literature study), lesion: several types, types named in the paper, dosed 103 weeks, study length 104 weeks
  TD50: 147 mg/kg/day
rat, strain Fischer 344, males, in drinking water, site: coccyx + humerus + subcutaneous tissue + vertebra, lesion: osteosarcoma, dosed 103 weeks, study length 104 weeks
  TD50: 82.7 mg/kg/day
rat, strain Fischer 344, males, in drinking water, site: coccyx + humerus + vertebra, lesion: osteosarcoma, dosed 103 weeks, study length 104 weeks
  TD50: 109 mg/kg/day

## Nc1nc(N)nc(-c2ccccc2)n1
mouse, strain CD-1 HaM/ICR, females, in feed, site: any site (literature study), lesion: several types, types named in the paper, dosed 77 weeks, study length 94 weeks
  TD50: 932 mg/kg/day (inactive)
mouse, strain CD-1 HaM/ICR, females, in feed, site: liver, lesion: several types, types named in the paper, dosed 77 weeks, study length 94 weeks
  TD50: 2040 mg/kg/day (inactive)
mouse, strain CD-1 HaM/ICR, females, in feed, site: lung, lesion: several types, types named in the paper, dosed 77 weeks, study length 94 weeks
  TD50: 9340 mg/kg/day (inactive)
mouse, strain CD-1 HaM/ICR, males, in feed, site: any site (literature study), lesion: several types, types named in the paper, dosed 73 weeks, study length 94 weeks
  TD50: 439 mg/kg/day (inactive)
mouse, strain CD-1 HaM/ICR, males, in feed, site: liver, lesion: several types, types named in the paper, dosed 73 weeks, study length 94 weeks
  TD50: 3200 mg/kg/day (inactive)
mouse, strain CD-1 HaM/ICR, males, in feed, site: lung, lesion: several types, types named in the paper, dosed 73 weeks, study length 94 weeks
  TD50: 304 mg/kg/day (inactive)
rat, strain Charles River CD (Sprague-Dawley), males, in feed, site: any site (literature study), lesion: several types, types named in the paper, dosed 77 weeks, study length 94 weeks
  TD50: 16.3 mg/kg/day (inactive)
rat, strain Charles River CD (Sprague-Dawley), males, in feed, site: liver, lesion: several types, types named in the paper, dosed 77 weeks, study length 94 weeks
  carcinogen call: negative (inactive)

## CCOC(=O)/C(Cl)=N/Nc1ccccc1
mouse, strain B6C3F1, females, in feed, site: pituitary gland, lesion: adenoma, NOS, dosed 103 weeks, study length 104 weeks
  TD50: 20200 mg/kg/day (inactive)
mouse, strain B6C3F1, females, in feed, site: uterus, lesion: endometrial stromal polyp, dosed 103 weeks, study length 104 weeks
  TD50: 86500 mg/kg/day
mouse, strain B6C3F1, males, in feed, site: lung, lesion: alveolar/bronchiolar adenoma, dosed 103 weeks, study length 104 weeks
  TD50: 7160 mg/kg/day (inactive)
rat, strain Fischer 344, females, in feed, site: adrenal gland, lesion: cortical adenoma, dosed 103 weeks, study length 105 weeks
  TD50: 11900 mg/kg/day (inactive)
rat, strain Fischer 344, females, in feed, site: any site (literature study), lesion: several types, types named in the paper, dosed 103 weeks, study length 105 weeks
  TD50: 29500 mg/kg/day
rat, strain Fischer 344, males, in feed, site: any site (literature study), lesion: several types, types named in the paper, dosed 103 weeks, study length 105 weeks
  carcinogen call: negative (inactive)
rat, strain Fischer 344, males, in feed, site: liver, lesion: hepatocellular adenoma + hepatocellular carcinoma + neoplastic nodule, dosed 103 weeks, study length 105 weeks
  TD50: 516000 mg/kg/day
